We go through 28 compounds from US7348334B2, “Monocyclic derivatives of aryl alkanoic acids and their use in medicine: process for their preparation and pharmaceutical compositions containing them” (Dr. Reddy's Laboratories Limited, priority 2001, dated 2008).

Where a name gives a salt, the structure may show the parent alone.

The subject of one data set is C57BL/KsJ-db/db mice. The experiment in a line: Blood sugar and triglyceride lowering in db/db mice. The format is in vivo, mouse. Particulars: 10 mg/kg oral gavage daily for 6 days. An excerpt: Mutation in colonies of laboratory animals and different sensitivities to dietary regimens have made the development of animal models with non-insulin dependent diabetes and hyperlipidemia associated with obesity and insulin resistance possible. Genetic models such as db/db and ob/ob (Diabetes, (1982) 31(1): 1-6) mice and zucker fa/fa rats have been developed by the various laboratories for understanding the pathophysiology of disease and testing the efficacy of new antidiabetic compounds (Diabetes, (1983) 32: 830-838; Annu. Rep. Sankyo Res. Lab. (1994). 46: 1-57). The homozygous animals, C57 BL/KsJ-db/db mice developed by Jackson Laboratory, US, are obese, hyperglycemic, hyperinsulinemic and insulin resistant (J. Clin. Invest., (1990) 85: 962-967), whereas heterozygous are lean and normoglycemic. In db/db model, mouse progressively develops insulinopenia with age, a feature commonly observed in late stages of human type II diabetes when blood sugar levels are insufficiently controlled. The state of pancreas and its course vary according to the models. Since this model resembles that of type II diabetes mellitus, the compounds of the present invention were tested for blood sugar and triglycerides lowering activities.
[…] C57BL/KsJ-db/db mice of 8 to 14 weeks age, having body weight range of 35 to 60 grams, bred at Dr. Reddy's Research Foundation (DRF) animal house, were used in the experiment. The mice were provided with standard feed (National Institute of Nutrition (NIN), Hyderabad, India) and acidified water, ad libitum. The animals having more than 350 mg/dl blood sugar were used for testing. The number of animals in each group was 4.
Test compounds were suspended on 0.25% carboxymethyl cellulose and administered to test group at a dose of 0.001 mg to 30 mg/kg through oral gavage daily for 6 days. The control group received vehicle (dose 10 ml/kg). On 6th day the blood samples were collected one hour after administration of test compounds/vehicle for assessing the biological activity.
The random blood sugar and triglyceride levels were measured by collecting blood (100 μl) through orbital sinus, using heparinised capillary in tubes containing EDTA which was centrifuged to obtain plasma. The plasma glucose and triglyceride levels were measured spectrometrically, by glucose oxidase and glycerol-3-PO4 oxidase/peroxidase enzyme (Dr. Reddy's Lab. Diagnostic Division Kits, Hyderabad, India) methods respectively.
The blood sugar and triglycerides lowering activities of the test compound was calculated according to the formula.
(§1) 1. Percent reduction in Blood sugar/triglycerides/total cholesterol were calculated according to the formula: […]

A further data set addresses T1, hPPARγ1 (Homo sapiens, UniProt P37231).
T1 construct: expressed in transfected cells; host or cells: HEK-293
T1 sequence (P37231 238-503 limits assumed): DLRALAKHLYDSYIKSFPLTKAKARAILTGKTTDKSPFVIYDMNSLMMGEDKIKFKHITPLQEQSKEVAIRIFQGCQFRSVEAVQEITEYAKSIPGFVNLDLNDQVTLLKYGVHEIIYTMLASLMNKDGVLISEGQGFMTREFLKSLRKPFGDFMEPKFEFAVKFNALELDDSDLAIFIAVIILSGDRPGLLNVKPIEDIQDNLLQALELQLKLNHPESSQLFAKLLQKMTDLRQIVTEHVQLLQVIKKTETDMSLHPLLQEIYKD
The experiment in a line: Determination of hPPARγ activity (GAL4 fusion luciferase reporter in HEK-293 cells). The data set is classed as cell-based. Particulars: compound at 1 μM. As for the experimental part: b) Determination of hPPARγ Activity:
Ligand binding domain of hPPARγ1 was fused to DNA binding domain of Yeast transcription factor GAL4 in eucaryotic expression vector. Using lipofectamine (Gibco BRL, USA) as transfecting reagent HEK-293 cells were transfected with this plasmid and a reporter plasmid harboring the luciferase gene driven by a GAL4 specific promoter. Compound was added at 1 μM concentration after 48 hrs of transfection and incubated overnight.

For the next data set, the target named is T2, hPPARα (Homo sapiens, UniProt Q07869).
T2 construct: expressed in transfected cells; host or cells: HEK-293
T2 sequence (Q07869 239-466 limits assumed): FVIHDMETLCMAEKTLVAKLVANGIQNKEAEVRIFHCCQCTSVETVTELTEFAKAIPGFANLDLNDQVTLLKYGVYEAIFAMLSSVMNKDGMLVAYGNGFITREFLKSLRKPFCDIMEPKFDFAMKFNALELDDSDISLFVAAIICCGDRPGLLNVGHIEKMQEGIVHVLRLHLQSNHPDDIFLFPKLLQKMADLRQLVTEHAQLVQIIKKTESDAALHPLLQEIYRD
The experiment in a line: Determination of hPPARα activity (GAL4 fusion luciferase reporter in HEK-293 cells). The data set is classed as cell-based. Particulars: compound at 50 μM. As for the experimental part: a) Determination of hPPARα Activity:
Ligand binding domain of hPPARα was fused to DNA binding domain of Yeast transcription factor GAL4 in eucaryotic expression vector. Using superfect (Qiagen, Germany) as transfecting reagent HEK-293 cells were transfected with this plasmid and a reporter plasmid harboring the luciferase gene driven by a GAL4 specific promoter. Compound was added at different concentrations after 42 hrs of transfection and incubated overnight. Luciferase activity as a function of compound binding/activation capacity of PPARα was measured using Packard Luclite kit (Packard, USA) in Top Count (Ivan Sadowski, Brendan Bell, Peter Broag and Melvyn Hollis. Gene. 1992. 118: 137-141; Superfect Transfection Reagent Handbook. February 1997. Qiagen, Germany).
(In general: In a reporter assay the amount or activity of a reporter protein is the signal.)

A further data set relates to Swiss albino mice. In words: Plasma triglyceride lowering activity in Swiss albino mice and guinea pigs. The format is in vivo, mouse. As for the experimental part: c) Plasma Triglyceride and Total Cholesterol Lowering Activity in Swiss Albino Mice and Guinea Pigs:
Male Swiss albino mice (SAM) and male Guinea pigs were obtained from NIN and housed in DRF animal house. All these animals were maintained under 12 hour light and dark cycle at 25±1° C. Animals were given standard laboratory chow (NIN, Hyderabad, India) and water, ad libitum. SAM of 20-25 g body weight range and Guinea pigs of 500-700 g body weight range were used (Oliver, P., Plancke, M. O., Marzin, D., Clavey, V., Sauzieres, J and Fruchart, J. C. Effects of fenofibrate, gemfibrozil and nicotinic acid on plasma lipoprotein levels in normal and hyperlipidemic mice. Atherosclerosis, 1988. 70: 107-114).
The test compounds were administered orally to Swiss albino mice at 0.3 to 30 mg/kg/day dose for 6 days. Control mice were treated with vehicle (0.25% Carboxymethylcellulose; dose 10 ml/kg). The test compounds were administered orally to Guinea pigs at 0.3 to 30 mg/kg/day dose for 6 days. Control animals were treated with vehicle (0.25% Carboxymethylcellulose; dose 5 ml/kg).
The blood samples were collected in fed state 1 hour after drug administration on 0 and 6 day of treatment. The blood was collected from the retro-orbital sinus through heparinised capillary in EDTA containing tubes. After centrifugation, plasma sample was separated for triglyceride and total cholesterol (Wieland, O. Methods of Enzymatic analysis. Bergermeyer, H. O., Ed., 1963. 211-214; Trinder, P. Ann. Clin. Biochem. 1969. 6: 24-27). Measurement of plasma triglyceride, total cholesterol and HDL were done using commercial kits (Dr. Reddy's Diagnostic Division, Hyderabad, India).
as §1

Take `CCOC(=O)C(C)(C)Oc1ccc(C(=O)NCCn2c(CC)nc(-c3ccccc3)cc2=O)cc1` [Example 2]: the melting point – broadly, the temperature, or range, at which the solid turns liquid – lay within 148 to 150 °C.
The same measure, in the same setting: to `CCOC(=O)C(C)(C)Oc1ccc(NC(=O)Cn2c(CC)nc(-c3ccccc3)cc2=O)cc1` [Example 4] belongs 128 to 130 °C; to `CCCCCCC(Oc1ccc(NC(=O)Cn2c(CC)nc(-c3ccccc3)cc2=O)cc1)C(=O)OCC` (stereo not drawn) [Example 9], 140 to 143 °C.
Still for that read-out and setting: to `CCCC(Oc1ccc(OCCn2c(CC)nc(-c3ccccc3)cc2=O)cc1)C(=O)OCC` (stereo not drawn) [Example 16] belongs 80 to 82 °C.
The same measure, in the same setting: in the case of `CCCC(Nc1ccc(OCCn2c(CC)nc(-c3ccccc3)cc2=O)cc1)C(=O)OCC` (stereo not drawn) [Example 24] it was 40 °C; in that of `CCCCCCCN(c1ccc(OCCn2c(CC)nc(-c3ccccc3)cc2=O)cc1)C(C)C(=O)OCC` (stereo not drawn) [Example 25], 88 to 89 °C.
For `CCCCCCCN(C(=O)Cn1c(CC)nc(-c2ccccc2)cc1=O)c1ccc(SC(C(=O)O)C(C)C)cc1` (stereo not drawn) [Example 26, 2-[4-(2-Ethyl-6-oxo-4-phenyl-1,6-dihydropyrimidin-1-ylmethyl(heptyl)carboxamido)phenylsulfanyl}-3-methyl butanoic acid], in the data set with C57BL/KsJ-db/db mice, the “Reduction in Blood Glucose Level (%)” value was 41% and the “Triglyceride Lowering (%)” value came out at 45%.
As for `CCc1nc(-c2ccccc2)cc(=O)n1CCNC(=O)c1ccc(OC(C)(C)C(=O)O)cc1` [Example 27], the melting point turned out to be 210 °C.
`CCc1nc(-c2ccccc2)cc(=O)n1CC(=O)Nc1ccc(OC(C)(C)C(=O)O)cc1` [Example 29] showed a melting point of 120 °C.
`CCCCCCCN(C(=O)Cn1c(CC)nc(-c2ccccc2)cc1=O)c1ccc(OC(C)(C)C(=O)O)cc1` [Example 30] came in with a melting point of 68 to 70 °C. In addition, in the data set on C57BL/KsJ-db/db mice, the “Reduction in Blood Glucose Level (%)” value is listed as 34% and the “Triglyceride Lowering (%)” value came to 63%.
As for `CCc1nc(-c2ccccc2)cc(=O)n1CCOc1ccc(OC(C)(C)C(=O)O)cc1` [Example 31], the melting point is 158 to 160 °C.
On the same count and under the same terms, in the case of `CCCC(Oc1ccc(OCCn2c(CC)nc(-c3ccccc3)cc2=O)cc1)C(=O)O` (stereo not drawn) [Example 32] it was 190 to 192 °C; in that of `CCc1nc(-c2ccccc2)cc(=O)n1CCOc1ccc(OC(C)(CC)C(=O)O)cc1` (stereo not drawn) [Example 33], 159 to 161 °C.
Regarding `CCc1nc(-c2ccccc2)cc(=O)n1CCOc1ccc(NC(C)C(=O)O)cc1` (stereo not drawn) [Example 34], the melting point is 52 °C.
The compound `CCc1nc(-c2ccccc2)cc(=O)n1CCOc1ccc(NC(C)C(=O)O)cc1` (stereo not drawn) [Example 35] yielded a melting point of 192 to 194 °C. Further, on hPPARγ1, the PPARγ was 2.2. On hPPARα, this compound gave a PPARα of 6.2.
For `CCCCCCCN(C(=O)Cn1c(CC)nc(-c2ccccc2)cc1=O)c1ccc(OC(C)(CC)C(=O)O)cc1` (stereo not drawn) [Example 36] the same measures were 52 to 54 °C, 1.2 and 7.5.
Consider `CCCCCCCN(C(=O)Cn1c(CC)nc(-c2ccccc2)cc1=O)c1ccc(OC(CCC)C(=O)O)cc1` (stereo not drawn) [Example 37], for which the melting point was 48 to 50 °C.
On the same count and under the same terms, to `CCc1nc(-c2ccccc2)cc(=O)n1CCOc1ccc(NC(C)(C)C(=O)O)cc1` [Example 38] belongs 168 to 169 °C; to `CCCC(Nc1ccc(OCCn2c(CC)nc(-c3ccccc3)cc2=O)cc1)C(=O)O` (stereo not drawn) [Example 39], 155 to 157 °C; to `CCc1nc(-c2ccccc2)cc(=O)n1CCSc1ccc(OCC(=O)O)cc1` [Example 41], 164 to 166 °C.
`CCCCCCCN(C(=O)Cn1c(CC)nc(-c2ccccc2)cc1=O)c1ccc(S[C@@H](CC(C)C)C(=O)O)cc1` [Example 43] returned a melting point of 58 to 60 °C. The PPARγ at hPPARγ1 was determined as 2.2. Also, in the data set on C57BL/KsJ-db/db mice, the “Reduction in Blood Glucose Level (%)” value is given as 39% and the “Triglyceride Lowering (%)” value is given as 43%. For the same compound, the PPARα at hPPARα came out at 6.7. For the same compound, in the data set on Swiss albino mice (3 mg/kg orally for 6 days), the “Triglyceride Lowering (%)” value turned out to be 44%.
Consider `CCc1nc(-c2ccccc2)cc(=O)n1CCOc1ccc(SC(C(=O)O)C(C)C)cc1` (stereo not drawn) [Example 44], for which the melting point came to 64 °C. The “Triglyceride Lowering (%)” value in the data set with Swiss albino mice (3 mg/kg orally for 6 days) stood at 36%.
On to `CCc1nc(-c2ccccc2)cc(=O)n1CC(=O)Nc1ccc(SC(C(=O)O)C(C)C)cc1` (stereo not drawn) [Example 45], for which the melting point was 195 to 200 °C. Also, the PPARγ on hPPARγ1 is reported as 0.8. This compound registered a PPARα on hPPARα of 7.2.
For `CCc1nc(-c2ccccc2)cc(=O)n1CCNc1ccc(SC(CC)C(=O)O)cc1` (stereo not drawn) [Example 46] the same measures were 118 °C, 3.1 and 6.5.
For the compound `CCc1nc(-c2ccccc2)cc(=O)n1CCNc1ccc(SC(CC(C)C)C(=O)O)cc1` (stereo not drawn) [Example 47], the melting point is 62 to 64 °C.
Still for that read-out and setting: to `CCc1nc(-c2ccccc2)cc(=O)n1CCNc1ccc(SC(C(=O)O)C(C)C)cc1` (stereo not drawn) [Example 48] belongs 65 to 70 °C.
As for `CCCCCCCN(C(=O)Cn1c(CC)nc(-c2ccccc2)cc1=O)c1ccc(SC(CC)C(=O)O)cc1` (stereo not drawn) [Example 49, 2-[4-(2-Ethyl-6-oxo-4-phenyl-1,6-dihydropyrimidin-1-ylmethyl(heptyl)carboxamido)phenylsulfanyl}butanoic acid, arginine salt], the “Triglyceride Lowering (%)” value in the data set with Swiss albino mice (10 mg/kg orally for 6 days) is reported as 69%.
For `Cc1cccc(Nc2cc(Cl)nc(SCC(=O)O)n2)c1C` [Wy 14643, reference compound], at hPPARα, the PPARα was found to be 7.
